Read-outs that look alike come from different tables or passages of the source.
Columns and labels:
[1] = system: Key Grass and Sedge Weeds as well as Grass Crops; assay: Post-Emergent Test II: postemergent herbicidal activity, visual rating after 14 d (Table 8); format: in vivo; details: post-emergence, 336 h; for pest or weed control at 35 g/ha: 35 g ai/ha; for pest or weed control at 70 g/ha: 70 g ai/ha; for pest or weed control at 140 g/ha: 140 g ai/ha
How it was run: (§1)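 Scoring is visual, 0-100, at 14 d after application, comparing treated with untreated plants. Application: overhead track spray at 187 L/ha onto seedlings at 1-2 true leaves, in surfactant/crop-oil carrier.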

[2] = system: Key Broadleaf Weed and Crop Species; assay: Post-Emergent Test II: postemergent herbicidal activity, visual rating after 14 d (Table 7); format: in vivo; details: post-emergence, 336 h; for pest or weed control at 35 g/ha: 35 g ai/ha; for pest or weed control at 70 g/ha: 70 g ai/ha; for pest or weed control at 140 g/ha: 140 g ai/ha
How it was run: as §1

[3] = barnyardgrass (Echinochloa crus-galli), read-out: Visual Growth Reduction (%) 14 Days After Application ECHCG
[4] = giant foxtail (Setaria faberi), read-out: Visual Growth Reduction (%) 14 Days After Application SETFA
[5] = maize, corn (Zea mays), read-out: Visual Growth Reduction (%) 14 Days After Application ZEAMX
[6] = rice (Oryza sativa), read-out: Visual Growth Reduction (%) 14 Days After Application ORYSA
[7] = wheat, spring (Triticum aestivum), read-out: Visual Growth Reduction (%) 14 Days After Application TRZAS
[8] = yellow nutsedge (Cyperus esculentus), read-out: Visual Growth Reduction (%) 14 Days After Application CYPES
[9] = lambsquarters (Chenopodium album), read-out: Visual Growth Reduction (%) 14 Days After Application CHEAL
[10] = oilseed rape, canola (Brassica napus), read-out: Visual Growth Reduction (%) 14 Days After Application BRSNN
[11] = redroot pigweed (Amaranthus retroflexus), read-out: Visual Growth Reduction (%) 14 Days After Application AMARE
[12] = sunflower (Helianthus annuus), read-out: Visual Growth Reduction (%) 14 Days After Application HELAN
[13] = velvetleaf (Abutilon theophrasti), read-out: Visual Growth Reduction (%) 14 Days After Application ABUTH
[14] = wild poinsettia (Euphorbia heterophylla), read-out: Visual Growth Reduction (%) 14 Days After Application EPHHL

| Compound | pest or weed control at 35 g/ha [1, 3] [%] | pest or weed control at 70 g/ha [1, 3] [%] | pest or weed control at 140 g/ha [1, 3] [%] | pest or weed control at 35 g/ha [1, 4] [%] | pest or weed control at 70 g/ha [1, 4] [%] | pest or weed control at 140 g/ha [1, 4] [%] | pest or weed control at 35 g/ha [1, 5] [%] | pest or weed control at 70 g/ha [1, 5] [%] | pest or weed control at 140 g/ha [1, 5] [%] | pest or weed control at 35 g/ha [1, 6] [%] | pest or weed control at 70 g/ha [1, 6] [%] | pest or weed control at 140 g/ha [1, 6] [%] | pest or weed control at 35 g/ha [1, 7] [%] | pest or weed control at 70 g/ha [1, 7] [%] | pest or weed control at 140 g/ha [1, 7] [%] | pest or weed control at 35 g/ha [1, 8] [%] | pest or weed control at 70 g/ha [1, 8] [%] | pest or weed control at 140 g/ha [1, 8] [%] | pest or weed control at 35 g/ha [2, 9] [%] | pest or weed control at 70 g/ha [2, 9] [%] | other results |
| --- | --- | --- | --- | --- | --- | --- | --- | --- | --- | --- | --- | --- | --- | --- | --- | --- | --- | --- | --- | --- | --- |
| COC(=O)c1nc(-c2cc3c(cc2F)OCO3)nc(N)c1OC [Compound 69] | 0 to 29 | 0 to 29 | 0 to 29 | 0 to 29 | 0 to 29 | 0 to 29 | 0 to 29 | 0 to 29 | 0 to 29 | 0 to 29 | 0 to 29 | 0 to 29 | 0 to 29 | 0 to 29 | 0 to 29 | 0 to 29 | 0 to 29 | 0 to 29 | 0 to 29 | 0 to 29 | pest or weed control at 140 g/ha [2, 9]: 0 to 29%; pest or weed control at 35 g/ha [2, 10]: 75 to 84%; pest or weed control at 70 g/ha [2, 10]: 75 to 84%; pest or weed control at 140 g/ha [2, 10]: 95 to 100%; pest or weed control at 35 g/ha [2, 11]: 0 to 29%; pest or weed control at 70 g/ha [2, 11]: 0 to 29%; pest or weed control at 140 g/ha [2, 11]: 0 to 29%; pest or weed control at 35 g/ha [2, 12]: 0 to 29%; pest or weed control at 70 g/ha [2, 12]: 45 to 59%; pest or weed control at 140 g/ha [2, 12]: 60 to 74%; pest or weed control at 35 g/ha [2, 13]: 0 to 29%; pest or weed control at 70 g/ha [2, 13]: 0 to 29%; pest or weed control at 140 g/ha [2, 13]: 0 to 29%; pest or weed control at 35 g/ha [2, 14]: 0 to 29%; pest or weed control at 70 g/ha [2, 14]: 60 to 74%; pest or weed control at 140 g/ha [2, 14]: 75 to 84% |
| COC(=O)c1nc(-c2ccc(Cl)c3c2OC(F)(F)O3)c(F)c(N)c1Cl [Compound 75] | 0 to 29 | 0 to 29 | 0 to 29 | 0 to 29 | 0 to 29 | 0 to 29 | 95 to 100 | 95 to 100 | 95 to 100 | 0 to 29 | 0 to 29 | 0 to 29 | 0 to 29 | 0 to 29 | 0 to 29 | 0 to 29 | 0 to 29 | 45 to 59 | 95 to 100 | 95 to 100 | pest or weed control at 140 g/ha [2, 9]: 95 to 100%; pest or weed control at 35 g/ha [2, 10]: 75 to 84%; pest or weed control at 70 g/ha [2, 10]: 85 to 94%; pest or weed control at 140 g/ha [2, 10]: 95 to 100%; pest or weed control at 35 g/ha [2, 11]: 95 to 100%; pest or weed control at 70 g/ha [2, 11]: 95 to 100%; pest or weed control at 140 g/ha [2, 11]: 95 to 100%; pest or weed control at 35 g/ha [2, 12]: 95 to 100%; pest or weed control at 70 g/ha [2, 12]: 95 to 100%; pest or weed control at 140 g/ha [2, 12]: 95 to 100%; pest or weed control at 35 g/ha [2, 13]: 85 to 94%; pest or weed control at 70 g/ha [2, 13]: 95 to 100%; pest or weed control at 140 g/ha [2, 13]: 95 to 100%; pest or weed control at 35 g/ha [2, 14]: 0 to 29%; pest or weed control at 70 g/ha [2, 14]: 0 to 29%; pest or weed control at 140 g/ha [2, 14]: 0 to 29% |
| COC(=O)c1nc(-c2ccc(F)c3c2OC(F)(F)O3)c(F)c(N)c1Cl [Compound 76] | 0 to 29 | 0 to 29 | 0 to 29 | 0 to 29 | 0 to 29 | 0 to 29 | 0 to 29 | 0 to 29 | 0 to 29 | 0 to 29 | 0 to 29 | 0 to 29 | 30 to 44 | 45 to 59 | 60 to 74 | 0 to 29 | 30 to 44 | 30 to 44 | 85 to 94 | 85 to 94 | pest or weed control at 140 g/ha [2, 9]: 95 to 100%; pest or weed control at 35 g/ha [2, 10]: 60 to 74%; pest or weed control at 70 g/ha [2, 10]: 75 to 84%; pest or weed control at 140 g/ha [2, 10]: 85 to 94%; pest or weed control at 35 g/ha [2, 11]: 95 to 100%; pest or weed control at 70 g/ha [2, 11]: 95 to 100%; pest or weed control at 140 g/ha [2, 11]: 95 to 100%; pest or weed control at 35 g/ha [2, 12]: 85 to 94%; pest or weed control at 70 g/ha [2, 12]: 85 to 94%; pest or weed control at 140 g/ha [2, 12]: 85 to 94%; pest or weed control at 35 g/ha [2, 13]: 60 to 74%; pest or weed control at 70 g/ha [2, 13]: 75 to 84%; pest or weed control at 140 g/ha [2, 13]: 85 to 94%; pest or weed control at 35 g/ha [2, 14]: 0 to 29%; pest or weed control at 70 g/ha [2, 14]: 0 to 29%; pest or weed control at 140 g/ha [2, 14]: 0 to 29% |

Source: patent US9149038B2, “4-amino-6-(heterocyclic)picolinates and 6-amino-2-(heterocyclic)pyrimidine-4-carboxylates and their use as herbicides” (Dow AgroSciences LLC, priority 2013, dated 2015)
